The target of the experiment is T1, PDE4B2 (Homo sapiens, UniProt Q07343).
T1 construct: made in house; host or cells: SF21 insect cells (baculovirus, pCR-Bac vector; virus made in SF9 cells)
Put plainly: Inhibition of PDE4B2 activity, modified [3H]cAMP SPA (scintillation proximity assay) test. To be noted: recombinant PDE4B2 (GB no. M97515) expressed in SF21 insect cells; 0.5 μM cAMP; 15 min at 37° C.; read-out: PDE4 Inhibition [measured as −logIC50 (mol/l)] (converted). Format: biochemical. As for the experimental part: The PDE4B2 (GB no. M97515) was a gift of Prof. M. Conti (Stanford University, USA). It was amplified from the original plasmid (pCMV5) via PCR with primers Rb9 (5′-[…]-3′) and Rb10 (5′-[…]-3′) and cloned into the pCR-Bac vector (Invitrogen, Groningen, NL).
The recombinant baculovirus was prepared by means of homologous recombination in SF9 insect cells. The expression plasmids were cotransfected with Bac-N-Blue (Invitrogen, Groningen, NL) or Baculo-Gold DNA (Pharmingen, Hamburg) using a standard protocol (Pharmingen, Hamburg). Wt virus-free recombinant virus supernatants were selected using plaque assay methods. After that, high-titre virus supernatants were prepared by amplifying 3 times. PDE4B2 was expressed in SF21 cells by infecting 2×10^6 cells/ml with an MOI (multiplicity of infection) between 1 and 10 in serum-free SF900 medium (Life Technologies, Paisley, UK). The cells were cultured at 28° C. for 48-72 hours, after which they were pelleted for 5-10 min at 1000 g and 4° C.
The SF21 insect cells were resuspended, at a concentration of approx. 10^7 cells/ml, in ice-cold ([…]) homogenization buffer (20 mM Tris, pH 8.2, containing the following additions: 140 mM NaCl, 3.8 mM KCl, 1 mM EGTA, 1 mM MgCl2, 10 mM-mercaptoethanol, 2 mM benzamidine, 0.4 mM Pefablock, 10 μM leupeptin, 10 μM pepstatin A, 5 μM trypsin inhibitor) and disrupted by ultrasonication. The homogenate was then centrifuged for 10 min at 1000×g and the supernatant was stored at −80° C. until sub-sequent use (see below). The protein content was determined by the Bradford method (BioRad, Munich) using BSA as the standard.
PDE4B2 activity was inhibited by the said compounds in a modified SPA (scintillation proximity assay) test, supplied by Amersham Biosciences (see procedural instructions “phosphodiesterase [3H]cAMP SPA enzyme assay, code TRKO 7090”), carried out in 96-well microtitre plates (MTP's). The test volume is 100 μl and contains 20 mM Tris buffer (pH 7.4), 0.1 mg of BSA (bovine serum albumin)/ml, 5 mM Mg^2+, 0.5 μM cAMP (including about 50,000 cpm of [3H]cAMP), 1 μl of the respective substance dilution in DMSO and sufficient recombinant PDE (1000×g supernatant, see above) to ensure that 10-20% of the cAMP is converted under the said experimental conditions. […] After a preincubation of 5 min at 37° C., the reaction is started by adding the substrate (cAMP) and the assays are incubated for a further 15 min; after that, they are stopped by adding SPA beads (50 μl). […] After the beads have been sedimented (>30 min), the MTP's are analyzed in commercially available luminescence detection devices. The corresponding IC50 values of the compounds for the inhibition of PDE activities are determined from the concentration-effect curves by means of non-linear regression.

The structures appear in SMILES notation.

T1 sequence (Q07343 1-564 isoform Q07343-2): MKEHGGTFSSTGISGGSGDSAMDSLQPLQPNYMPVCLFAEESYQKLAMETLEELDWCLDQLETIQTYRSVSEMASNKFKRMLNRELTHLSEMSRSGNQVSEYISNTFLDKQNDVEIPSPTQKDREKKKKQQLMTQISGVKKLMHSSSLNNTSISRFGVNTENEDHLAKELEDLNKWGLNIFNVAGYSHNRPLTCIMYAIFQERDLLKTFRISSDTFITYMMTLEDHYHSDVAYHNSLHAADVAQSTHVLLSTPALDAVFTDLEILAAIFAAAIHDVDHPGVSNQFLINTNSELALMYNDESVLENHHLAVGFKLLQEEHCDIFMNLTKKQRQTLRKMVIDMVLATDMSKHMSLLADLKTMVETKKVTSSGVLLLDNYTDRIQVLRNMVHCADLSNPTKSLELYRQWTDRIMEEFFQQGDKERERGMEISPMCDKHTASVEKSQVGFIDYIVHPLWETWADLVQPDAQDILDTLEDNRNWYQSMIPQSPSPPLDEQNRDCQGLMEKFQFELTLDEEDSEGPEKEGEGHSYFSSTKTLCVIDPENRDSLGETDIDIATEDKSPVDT

Take `CCOc1cc2c(cc1OC)C(c1ccc(C(=O)N(C(C)C)C(C)C)cc1)=[N+]([O-])[C@@H]1CCS(=O)(=O)C[C@H]21` [Compound 5, 4-((4aR,10aR)-6-Ethoxy-7-methoxy-3,3-dioxo-10-oxy-1,2,3,4,4a,10a-hexahydro-3l^6-thia-10-aza-phenanthren-9-yl)-N,N-diisopropyl-benzamide]: the IC50 was 20 nM. As for `CCOc1cc2c(cc1OC)C(c1ccc(C(=O)N(C(C)C)C(C)C)cc1)=N[C@@H]1CC[S+]([O-])C[C@H]21` (single isomer, unassigned) [Compound 2], the figure is 145 nM; as for `CCOc1cc2c(cc1OC)C(c1ccc(C(=O)N(C(C)C)C(C)C)cc1)=N[C@@H]1CC[S+]([O-])C[C@H]21` (single isomer, unassigned) [Compound 3], 3.31 nM. Turning to `CCOc1cc2c(cc1OC)C(c1ccc(C(=O)N(C(C)C)C(C)C)cc1)=N[C@@H]1CCSC[C@H]21` [Compound 1, 4-((4aR,10aR)-6-Ethoxy-7-methoxy-1,4,4a,10a-tetrahydro-2H-3-thia-10-aza-phenanthren-9-yl)-N,N-diisopropyl-benzamide], the IC50 was 0.724 nM.

Source of the values: US8324404B2, “3-thia-10-aza-phenanthrene derivatives” (Nycomed GmbH, priority 2004, dated 2012).
